Results taken from US10500223B2, “Therapeutic agent for myotonic dystrophy” (Osaka University, priority 2015, dated 2019).
Where “and” joins values, the source holds several entries; their conditions need not be identical. Equal entries are not always repeated.

Assays:
C2C12-DMPK800R cells = assay: RNA foci formation in MyD model cells (FISH); type: cell-based, mouse; conditions: erythromycin 25 or 50 μM, 72 hours, vs medium without erythromycin
Method: MyD model cells were treated with erythromycin, and the number of RNA foci was measured by the FISH (fluorescence in situ hybridization) method.
The MyD cell model used was cells established by transfection of a DMPK gene containing 800 CTG repeats into C2C12 cells (C2C12-DMPK800R, Nucleic Acids Research, 2014, 42 (10), 6591-6602). The establishment of the C2C12-DMPK800 cells was performed in the following procedure. Both a plasmid (pLC16) with a DMPK gene sequence containing 800 CTG repeats in the 3′-untranslated region and a plasmid expressing PhiC31 integrase were transfected into the C2C12 mouse myoblast cell line using Nucleofector (trade name, Lonza), and stably expressing cells were selected using a selection medium with puromycin. Next, a plasmid expressing Cre recombinase was transfected into the stably expressing cells, and a clone in which the transcription of 800 CUG had been activated was selected using a selection medium with hygromycin. […]
The MyD model cells were cultured in DMEM medium supplemented with 10% FBS and penicillin/streptomycin under the conditions of 37° C. and 5% CO2. […] After mounting in Vectashield with DAPI (trade name, Vector Laboratories), the number of RNA foci in the nucleus was counted with a fluorescence microscope (Keyence PZ-9000).

[1] = test system: Atp2a1 gene exon 22 splicing; assay: Aberrant splicing of Atp2a1 exon 22 in MyD model cells (RT-PCR); type: cell-based, mouse; conditions: C2C12-DMPK800R cells, erythromycin 25 or 50 μM, 72 hours
Method: The MyD model cells were treated with erythromycin, and whether erythromycin would correct aberrant splicing in exon 22 of the Atp2a1 gene was examined. The same MyD model cells as in Example 1 (C2C12-DMP[…]) were used. The same erythromycin as in Example 1 was used. To the medium of the MyD model cells, erythromycin was added at 0, 25 or 50 μM, and after 72 hours, the total RNA was extracted using RNeasy Mini Plus Kit (trade name, Qiagen). As a control, normal C2C12 cells were cultured in a medium without erythromycin, and the total RNA was similarly extracted. For RT-PCR, SuperScript III First-Strand Synthesis System (Invitrogen) was used to prepare cDNA, and after treatment with RNase H, the segment of interest was amplified using the Atp2a1 exon 22 RT primers shown below. The RT-PCR product was electrophoresed on a 2% agarose gel and then stained using GelRed. The normal PCR product and the aberrant PCR product were separately quantified with an image analyzer (Typhoon 9410, GE). Atp2a1 exon 22 RT primers

[2] = test system: skeletal muscle chloride channel (Clcn1) gene splicing; assay: Aberrant splicing of Clcn1 gene in quadriceps femoris muscle of MyD model mice, usual-dose oral erythromycin; type: in vivo, mouse; conditions: HSA^LR mice, 50 mg/kg gavage once daily for 21 days, vs physiological saline MyD group
Method: Usual-dose erythromycin was orally administered to MyD model mice, and its effects on muscle contraction in the quadriceps femoris muscle and on aberrant splicing of the skeletal muscle chloride channel (Clcn1) gene in the quadriceps femoris muscle were examined. The same MyD model mice (HSA^LR mice) and wild-type mice as in Example 3 were used. As with the case in Example 4, “Erythrocin (registered trademark) dry syrup […]% (erythromycin ethylsuccinate dry syrup)” (Abbott) was dissolved at 100 mg/mL in purified water before use. The animals were divided into three groups: an erythromycin 50 mg/kg administration MyD group, a physiological saline administration MyD group and a control (wild-type mice) group (n=3 per group). The administration was gavage administration and performed once daily for 21 consecutive days. On the day of the final administration, the quadriceps femoris muscle was dissected from each mouse. In the same manner as in Example 3, RT-PCR was performed, and the normally spliced product and the aberrantly spliced product were separately quantified. Statistical analysis was performed using t-test.

[3] = test system: skeletal muscle chloride channel (Clcn1) gene splicing; assay: Aberrant splicing of Clcn1 gene in quadriceps femoris muscle of MyD model mice, intraperitoneal erythromycin; type: in vivo, mouse; conditions: HSA^LR mice, 150 mg/kg intraperitoneal once daily for 8 days, vs physiological saline MyD group
Text: Erythromycin was intraperitoneally administered to MyD model mice, and its effects on muscle contraction in the quadriceps femoris muscle and on aberrant splicing of the skeletal muscle chloride channel (Clcn1) gene in the quadriceps femoris muscle were examined. The MyD model mice used were HSA^LR mice, which were kindly provided by Dr. Charles Thornton (University of Rochester) and bred in the laboratory animal facility of Osaka University. The HSA^LR mice are transgenic animals prepared by genomic integration of a hACTA gene (human gene constitutively expressed in myocytes) containing 3′-terminal CTG repeats expanded to 220, and manifest the symptoms of MyD upon the expression of mRNA with expanded CUG repeats in the myocytes (Science, 2000, 289 (5485), 1769-73). As a control, wild-type mice (FVB/NJcl mice, purchased from CLEA Japan) were used. Male and female mice aged 8 weeks were used for the experiment. The erythromycin used was “Erythrocin (registered trademark) for intravenous injection 500 mg (erythromycin lactobionate for injection)” (Abbott). This product was dissolved at 50 mg/mL in physiological saline before use. […] The normal PCR product and the aberrant PCR product were separately quantified with an image analyzer (Typhoon 9410, GE), and the percentage of the normal product in the total RT-PCR product was calculated. […]

[4] = test system: skeletal muscle chloride channel (Clcn1) gene splicing; assay: Aberrant splicing of Clcn1 gene in quadriceps femoris muscle of MyD model mice, high-dose oral erythromycin; type: in vivo, mouse; conditions: HSA^LR mice, 300, 600, 900 mg/kg gavage once daily for 5 days
Method: High-dose erythromycin was orally administered to MyD model mice, and its effect on aberrant splicing of the skeletal muscle chloride channel (Clcn1) gene in the quadriceps femoris muscle was examined. The same MyD model mice (HSA^LR mice) and wild-type mice as in Example 3 were used. The erythromycin used was “Erythrocin (registered trademark) dry syrup […]% (erythromycin ethylsuccinate dry syrup)” (Abbott). This product was dissolved at 100 mg/mL in purified water before use. The animals were divided into five groups: an erythromycin 300 mg/kg administration MyD group, an erythromycin 600 mg/kg administration MyD group, an erythromycin 900 mg/kg administration MyD group, a physiological saline administration MyD group and a control (wild-type mice) group (n=3 per group). The administration was gavage administration and performed once daily for five consecutive days. On the day of the final administration, the quadriceps femoris muscle was dissected from each mouse. In the same manner as in Example 3, RT-PCR was performed, the normally spliced product and the aberrantly spliced product were separately quantified, and the percentage of the normal product in the total RT-PCR product was calculated. Statistical analysis was performed using t-test.

HSA^LR mice [5] = assay: Muscle contraction (myotonia) by needle electromyography in MyD model mice, intraperitoneal erythromycin; type: in vivo, mouse; conditions: 150 mg/kg intraperitoneal once daily for 8 days, quadriceps femoris muscle, 24 h after final administration, n=3
Method: The animals were divided into three groups: an erythromycin administration MyD group, a physiological saline administration MyD group and a control (wild-type mice) group (n=3 (1 male, 2 females) per group). The dose of erythromycin was 150 mg/kg, and this dose was repeatedly administered once daily for 8 days. The physiological saline administration MyD group was repeatedly given physiological saline once daily for 8 days. Nothing was administered to the control (wild-type mice) group.
Twenty-four hours after the final administration, needle electromyography was performed in the quadriceps femoris muscle in the mice under anesthesia to record myotonic discharge. […]

HSA^LR mice [6] = assay: Muscle contraction (myotonia) by needle electromyography in MyD model mice, usual-dose oral erythromycin; type: in vivo, mouse; conditions: 50 mg/kg gavage once daily for 21 days, quadriceps femoris muscle, n=3
Method: Usual-dose erythromycin was orally administered to MyD model mice, and its effects on muscle contraction in the quadriceps femoris muscle and on aberrant splicing of the skeletal muscle chloride channel (Clcn1) gene in the quadriceps femoris muscle were examined. The same MyD model mice (HSA^LR mice) and wild-type mice as in Example 3 were used. As with the case in Example 4, “Erythrocin (registered trademark) dry syrup […]% (erythromycin ethylsuccinate dry syrup)” (Abbott) was dissolved at 100 mg/mL in purified water before use. The animals were divided into three groups: an erythromycin 50 mg/kg administration MyD group, a physiological saline administration MyD group and a control (wild-type mice) group (n=3 per group). The administration was gavage administration and performed once daily for 21 consecutive days. On the day of the final administration, needle electromyography was performed in the quadriceps femoris muscle in the mice under anesthesia to record myotonic discharge.

SMILES: CC[C@H]1OC(=O)[C@H](C)[C@@H](O[C@H]2C[C@@](C)(OC)[C@@H](O)[C@H](C)O2)[C@H](C)[C@@H](O[C@@H]2O[C@H](C)C[C@H](N(C)C)[C@H]2O)[C@](C)(O)C[C@@H](C)C(=O)[C@H](C)[C@@H](O)[C@]1(C)O [erythromycin, (2R,3S,4S,5R,6R,8R,10R,11R,12S,13R)-5-(3,4,6-trideoxy-3-dimethylamino-β-D-xylo-hexopyranosyloxy)-3-(2,6-dideoxy-3-C-methyl-3-O-methyl-α-L-ribo-hexopyranosyloxy)-6,11,12-trihydroxy-2,4,6,8,10,12-hexamethyl-9-oxopentadecan-13-olide]
- percentage of RNA foci positive cells (C2C12-DMPK800R cells): significantly decreased the percentage of RNA foci positive cells in a dose dependent manner
- percentage of the normal product in the total RT-PCR product (Atp2a1 exon 22) [1]: significantly increased the percentage of the normal product to a level observed in the normal C2C12 cells
- percentage of the normal RT-PCR product (Clcn1) [2]: significantly higher percentage of the normal RT-PCR product
- percentage of the normal product in the total RT-PCR product (Clcn1 exon 7a) [3]: significantly higher percentage of the normal RT-PCR product
- correction of aberrant splicing of the Clcn1 gene (percentage of normal product) [4]: significantly corrected the aberrant splicing of the Clcn1 gene in a dose dependent manner
- severity of muscle contraction (frequency of myotonic discharge), per mouse (HSA^LR mice [5]): 1 (myotonic discharge was observed in less than 50% of the needle insertions.) and no muscle contraction
- severity of muscle contraction (frequency of myotonic discharge), per mouse (HSA^LR mice [6]): 2 (myotonic discharge was observed in 50% or more and less than 90% of the needle insertions.) and 1 (myotonic discharge was observed in less than 50% of the needle insertions.)
